Laboratory results: US7321000B2, “Ophthalmic composition containing N-acetyl-cysteine for the treatment of dry-eye syndrome” (Farmigea S.p.A., priority 2001, dated 2008)

Experiment: Stability studies: autoclaving, colorimetric determination of N-AC
Format: physicochemical
Conditions: 120° C., 20 min.; both in the presence and absence of benzalkonium chloride
Protocol: The formulations underwent autoclaving (120° C., 20 min.): as highlighted in the prior art, N-acetyl-cysteine is degraded by about 30% (both in the presence and absence of benzalkonium chloride). It is, however, possible to carry out sterilisation by filtering through a 0.2 μm membrane, as was performed in the aforesaid examples.
In order to evaluate the stability of N-AC in the vehicle, it is not possible to use the HPLC method or ultraviolet spectrophotometry. The following calorimetric method was thus employed (Raggi M. A., Cavrini V. and Di Pietra A. M., Colorimetric determination of acetylcysteine, penicillamine and mercaptopropionylglycine in pharmaceutical dosage forms, J. Pharm. Sci., 71, 1384-1386 (1982)).
0.163 g of acetylcysteine is dissolved in 500 ml of distilled H2O. By diluting in a proportion of 1:5, the required concentration is obtained.
Increasing volumes of this solution (1-5 ml) are placed in a 25 ml flask and then the following are added in succession:
After 20 min the absorbance is measured at 515 nm by using as reference a control prepared at the same time as the sample.
The procedure described above was also applied to carry out the calibration of N-AC in the presence of DEAE-dextrane. For these samples, the measurement was carried out by using as reference a control containing the polymer and also a control without DEAE-dextrane.

For `CC(=O)N[C@@H](CS)C(=O)O` [N-acetyl-cysteine], the “degradation of N-acetyl-cysteine on autoclaving” value was “about 30%”.
